Test results taken from patent publication US10682409B2, “Therapeutic treatment” (priority 2012, dated 2020).

Assays:
[1] = system: patients suffering from ADHD; assay: Clinical Global Impression-Severity scale (CGI-S), Patients A-H; format: in vivo, human
Protocol: In an embodiment, attentiveness is measured using the Clinical Global Impression rating scales to measure symptom severity, treatment response and the efficacy of treatments in treatment studies of patients with mental disorders (Guy, W., 1976). In an embodiment, attentiveness is measure using the Clinical Global Impression-Severity scale (“CGI-S”). In an embodiment, CGI-S is a 7-point scale that requires the clinician to rate the severity of the patient's illness at the time of assessment, relative to the clinician's past experience with patients who have the same diagnosis. Considering total clinical experience, a patient is assessed on severity of mental illness at the time of rating 1, normal, not at all ill; 2, borderline mentally ill; 3, mildly ill; 4, moderately ill; 5, markedly ill; 6, severely ill; or 7, extremely ill. In an embodiment, attentiveness is measured using the Clinical Global Impression-Improvement scale (“CGI-I”). […] In an embodiment, attentiveness is measured using the Clinical Global Impression-Efficacy Index (“CGI-E”).
(§1) The age range of the patients was from 6-15 years of age, with a mean age at the start of treatment for ADHD of 8.4 years of age. The mean age at the start of the combination treatment wherein the patient was administered an amphetamine or methylphenidate and an appetite stimulant was 10.3 years of age. The mean treatment period for the eight patients was 1,108 days with a mean of 2.55 ADHD medication changes during the treatment period. Attentiveness in the eight patients was measured using CGI-S and CGI-I. Patients weight and height velocity were measured to identify a difference in weight and height gain prior to and after addition of an appetite stimulant to the treatment for ADHD. Weight velocity was calculated by taking three time points, time 0 upon initiation of medication to treat ADHD, time 1 addition of an appetite stimulant, time 2 the last data point after initiation of combination treatment. The formula to calculate weight velocity for stimulant alone is (weightT1−weight T0)/days from Time 0 to time 1. The formula to calculate weight velocity for combination treatment is (weightT2−weight T1)/days from time 1 to time 2.

[2] = Examples 3-11: weight and height (velocity, percentile curve, course) of ADHD Patients A-H; format: in vivo, human
Protocol: In an embodiment, a therapeutically effective amount of a therapeutic compound disclosed herein increases the weight or height of an individual is determined by an increase in the individual's weight or height velocity as compared to an individual nor receiving a therapeutic compound for appetite reduction. In an embodiment, weight and/or height velocity can be calculated by taking measurements of height and/or weight of an individual over a period of time and measuring an increase or decrease in an individual's height and/or weight over the period of time. In an embodiment, weight velocity is calculated by taking three time points, time 0 upon initiation of medication to treat ADHD, time 1 addition of an appetite stimulant, time 2 the last data point after initiation of combination treatment. In an embodiment, a formula to calculate weight and height velocity for stimulant alone is (weightT1−weight T0)/days from Time 0 to time 1. In an embodiment, a formula to calculate weight velocity for combination treatment is (weightT2−weight T1)/days from time 1 to time 2. In an embodiment, to evaluate whether weight velocity increased after addition of an appetite stimulant, the weight velocity of time 0 to time 1 is compared to the weight velocity from time 1 to time 2. In an embodiment, height velocity is calculated by taking three time points, time 0 upon initiation of medication to treat ADHD, time 1 addition of an appetite stimulant, time 2 the last data point after initiation of combination treatment. The formula to calculate height velocity for stimulant alone is (weightT1−weight T0)/days from Time 0 to time 1. The formula to calculate height velocity for combination treatment is (weightT2−weight T1)/days from time 1 to time 2. In an embodiment, to evaluate whether height velocity increased after addition of an appetite stimulant, the height velocity of time 0 to time 1 is compared to the height velocity from time 1 to time 2.
Eight patients, identified as patients A-H, that came in suffering from ADHD were treated for ADHD. […] Each patient was then prescribed an appetite simulant to be taken along with the amphetamine or methylphenidate. The patients' weight, height and attentiveness were then followed during the course of treatment.
as §1

[3] = cited from earlier work
[4] = Patient A, Periactin 4 mg b.i.d. added to Concerta from day 661, FIG. 4
[5] = Patient G, Focalin XR 15 mg and Periactin 4 mg b.i.d. from day 546, FIG. 16

CN1CCC(=C2c3ccccc3C=Cc3ccccc32)CC1.Cl [Periactin, 4-(5H-dibenzo[a,d]cyclohepten-5-ylidene)-1-methylpiperidine hydrochloride]
CGI-S score ([1]; Patient A, Periactin 4 mg b.i.d. added to Concerta, FIG. 5): 3
CGI-S score ([1]; Patient B, Focalin XR 15 mg and Periactin 4 mg b.i.d. (remained), FIG. 7): 3
CGI-S score ([1]; Patient B, Focalin XR raised to 30 mg at day 1279 with Periactin, FIG. 7): 2
CGI-S score ([1]; Patient C, Concerta 36 mg and Periactin 4 mg b.i.d., FIG. 9): 4
CGI-S score ([1]; Patient D, Concerta 18 mg and Periactin 2 mg in the morning, FIG. 11): 5
CGI-S score ([1]; Patient D, Concerta increased to 27 mg with Periactin, FIG. 11): 4
CGI-S score ([1]; Patient E, Focalin XR 20 mg and Periactin 4 mg in the morning): 4
CGI-S score ([1]; Patient E, Periactin dosed b.i.d. with Focalin XR): 3
CGI-S score ([1]; Patient G, Focalin XR 15 mg and Periactin 4 mg b.i.d., FIG. 17): 3
CGI-S score versus prior examination ([1]; Patient H, Vvyanase 40 mg and Periactin 2 mg b.i.d., day 200, FIG. 19): had not changed
lowering of the CGI-S of a patient by addition of the appetite stimulant ([1]; Patients A-H, versus same patient prior to appetite stimulant, FIG. 20, 21): ≥ 1
height course [2, 4]: increase in height began to accelerate
weight course [2, 4]: began to gain weight
weight course ([2]; Patient B, Focalin XR 15 mg and Periactin 4 mg b.i.d. from day 865, FIG. 6): began to gain weight
weight course ([2]; Patient B, Focalin XR 30 mg with Periactin, FIG. 6): continued to increase
weight course ([2]; Patient C, Concerta 36 mg and Periactin 4 mg b.i.d. from day 350, FIG. 8): began to gain weight
weight course ([2]; Patient D, Concerta 18 mg and Periactin 2 mg in the morning from day 23, FIG. 10): began to gain weight at an accelerated pace
weight course ([2]; Patient D, Concerta increased to 27 mg with Periactin): only a slight decrease in the ability of Patient D to continue to gain weight
height course ([2]; Patient D, combination of Concerta and Periactin, lagged initiation, FIG. 10): increased the growth rate
weight course ([2]; Patient E, Focalin XR 20 mg and Periactin 4 mg in the morning, FIG. 12): began to gain weight at an accelerated pace
pace of weight gain ([2]; Patient E, Periactin administered b.i.d. from day 836 with Focalin XR): increased
weight course ([2]; Patient F, Daytrana patch 30 mg and Periactin 2 mg b.i.d. from day 1547, FIG. 14): began to gain weight at an accelerated pace
pace of weight gain ([2]; Patient F, Periactin increased to 4 mg b.i.d. on day 1950 with Daytrana patch): increased
height course [2, 5]: began to gain height at an accelerated pace
weight course [2, 5]: continued to gain weight at a good pace
weight course ([2]; Patient H, Vvyanase 40 mg and Periactin 2 mg b.i.d. from day 109, FIG. 18): began to gain weight
appetite when the dose of the ADHD drug was increased ([2]; individual patient of the example (B, D, E, F) on Periactin): without a concomitant loss of appetite
effect in children suffering from ADHD (anecdotal evidence) ([3]; ADHD drug (amphetamine or methylphenidate) plus 4-8 mg cyproheptadine at night (Daviss 2004)): weight gain and excessive sleep
effect on weight in studies ([3]; non-human animals or humans (Orthen-Gambill 1988)): weight gain
side effects ([3]; oral monotherapy for allergy): weight gain and drowsiness
